# EPA's ToxRefDB 2
# What was measured:
# [1] = system: mouse; conditions: Subchronic oral toxicity in rodents, b6c3f1, Gavage/Intubation, dose end: 13 week, group: systemic
# [2] = system: rat; conditions: Chronic toxicity, fischer, Oral, Gavage/Intubation, dose end: 2 year, group: systemic
# [3] = system: mouse; conditions: Chronic toxicity; b6c3f1; Oral; Gavage/Intubation; dose end: 2 year; group: systemic; systemic / pathology microscopic / kidney / necrosis + systemic / pathology microscopic / kidney / regeneration + systemic / pathology …
# [4] = system: rat; conditions: Subchronic oral toxicity in rodents, fischer, Gavage/Intubation, dose end: 13 week, group: systemic
# [5] = system: rat; conditions: Chronic toxicity, sprague dawley, Oral, Gavage/Intubation, dose end: 6 month, group: systemic
# [6] = system: rabbit; conditions: Prenatal developmental toxicity study, new zealand white, Oral, Gavage/Intubation, dose end: 18 GD
# [7] = system: rat; conditions: Fertility (Segment I), sprague dawley, Oral, Gavage/Intubation, dose end: 7 GD, group: parental
# [8] = system: mouse; conditions: Subchronic oral toxicity in rodents, cd1, Gavage/Intubation, dose end: 3 month, group: systemic
# [9] = system: rabbit; conditions: Prenatal developmental toxicity study, new zealand white, Oral, Gavage/Intubation, dose end: 18 GD; remark: listed apart in the source
# [10] = system: rat; conditions: Prenatal developmental toxicity study; sprague dawley; Oral; Gavage/Intubation; dose end: 17 GD; group: maternal; systemic / in life observation / body weight / body weight gain
# [11] = system: rat; conditions: Prenatal developmental toxicity study; sprague dawley; Oral; Gavage/Intubation; dose end: 17 GD; group: maternal; systemic / in life observation / body weight / body weight + systemic / in life observation / food consumption / food consumption
# [12] = system: dog; conditions: Sub-acute repeat dose toxicity; beagle; Oral; Gavage/Intubation; dose end: 4 week; group: systemic; systemic / in life observation / body weight / body weight gain + systemic / in life observation / clinical signs / abnormal feces + …
# [13] = system: dog; conditions: Chronic toxicity, beagle, Oral, Gavage/Intubation, dose end: 6 month, group: systemic
# [14] = system: rat; conditions: Sub-acute repeat dose toxicity, sprague dawley, Oral, Gavage/Intubation, dose end: 4 week, group: systemic
# [15] = system: mouse; conditions: Carcinogenicity, b6c3f1, Oral, Water, dose end: 103 week, group: systemic
# [16] = system: rat; conditions: Sub-acute repeat dose toxicity, fischer, Oral, Water, dose end: 14 day, group: systemic
# [17] = system: mouse; conditions: Sub-acute repeat dose toxicity, b6c3f1, Oral, Water, dose end: 14 day, group: systemic
# [18] = system: rat; conditions: Subchronic oral toxicity in rodents, fischer, Water, dose end: 13 week, group: systemic
# [19] = system: rat; conditions: Carcinogenicity; fischer; Oral; Water; dose end: 103 week; group: systemic; systemic / pathology microscopic / liver / neoplastic nodule + systemic / pathology microscopic / liver / cellular alteration + systemic / …
# [20] = system: mouse; conditions: Subchronic oral toxicity in rodents, b6c3f1, Water, dose end: 13 week, group: systemic
# [21] = system: rat; conditions: Prenatal developmental toxicity study, sprague dawley, Oral, Gavage/Intubation, dose end: 15 GD
# [22] = system: rat; conditions: Prenatal developmental toxicity study, sprague dawley, Oral, Gavage/Intubation, dose end: 15 GD; remark: listed apart in the source
# [23] = system: rat; conditions: Subchronic oral toxicity in rodents, fischer, Feed, dose end: 13 week, group: systemic, systemic / clinical chemistry / alanine aminotransferase (alt/sgpt) / alanine aminotransferase (alt/sgpt) + systemic / clinical chemistry / …
# [24] = system: rat; conditions: Subchronic oral toxicity in rodents, fischer, Feed, dose end: 13 week, group: systemic, systemic / in life observation / body weight / body weight gain + systemic / in life observation / food consumption / food consumption + …
# [25] = system: rat; conditions: Sub-acute dermal toxicity, sprague dawley, Topical, dose end: 2 week, group: systemic, systemic / in life observation / body weight / body weight gain + systemic / in life observation / food consumption / food consumption
# [26] = system: rat; conditions: Subchronic dermal toxicity, sprague dawley, Topical, dose end: 91 day, group: systemic, systemic / in life observation / clinical signs / skin ulceration
# [27] = systemic / organ weight / kidney / absolute + systemic / organ weight / kidney / relative to body weight + systemic / organ weight / liver…
# [28] = systemic / in life observation / body weight / body weight + systemic / pathology microscopic / kidney / hyperplasia + systemic / pathology …
# [29] = systemic / pathology microscopic / intestine small / pigmentation + systemic / pathology microscopic / kidney / hemosiderosis + systemic / …
# [30] = systemic / pathology microscopic / intestine small / pigmentation + systemic / pathology microscopic / stomach / acanthosis + systemic / …
# [31] = systemic / clinical chemistry / triglycerides / triglycerides + systemic / in life observation / body weight / body weight gain + systemic…
# [32] = systemic / in life observation / body weight / body weight gain + systemic / in life observation / clinical signs / [other] + systemic / in …
# [33] = group: developmental, developmental / developmental malformation / bone / incomplete ossification + systemic / in life observation / body weight / fetal weight
# [34] = group: maternal, systemic / in life observation / body weight / body weight + systemic / in life observation / body weight / body weight gain + systemic / in…
# [35] = systemic / in life observation / body weight / body weight gain + systemic / in life observation / clinical signs / anogenital staining + …
# [36] = systemic / in life observation / body weight / body weight gain + systemic / in life observation / clinical signs / red or crusty deposits …
# [37] = systemic / clinical chemistry / alanine aminotransferase (alt/sgpt) / alanine aminotransferase (alt/sgpt) + systemic / clinical chemistry / …
# [38] = systemic / in life observation / clinical signs / abnormal feces + systemic / in life observation / clinical signs / body surface staining…
# [39] = group: developmental, systemic / in life observation / body weight / fetal weight
# [40] = group: maternal, systemic / in life observation / body weight / body weight gain + systemic / in life observation / food consumption / food consumption
# [41] = systemic / in life observation / clinical signs / emesis + systemic / in life observation / clinical signs / salivation
# [42] = systemic / in life observation / body weight / body weight gain + systemic / in life observation / clinical signs / abnormal respiratory …
# [43] = systemic / pathology microscopic / kidney / nephropathy
# [44] = systemic / pathology microscopic / kidney / nephropathy + systemic / pathology microscopic / blood / lymphoma nos
# [45] = systemic / in life observation / body weight / body weight + systemic / in life observation / body weight / body weight gain + systemic / in…
# [46] = systemic / in life observation / water consumption / water consumption
# [47] = systemic / in life observation / body weight / body weight gain + systemic / in life observation / water consumption / water consumption + …
# [48] = systemic / in life observation / body weight / body weight + systemic / in life observation / water consumption / water consumption + …
# [49] = systemic / in life observation / body weight / body weight + systemic / pathology microscopic / liver / hyperplasia + systemic / pathology …
# [50] = group: developmental, developmental / developmental malformation / bone / absent + developmental / developmental malformation / bone / bent + developmental / …
# [51] = group: maternal, systemic / in life observation / body weight / body weight gain
# [52] = group: developmental, developmental / developmental malformation / bone / exencephaly + developmental / developmental malformation / bone / thread-like + …
smiles,measurement,setting,value
"Cl.Cl.Nc1ccc(O)c(N)c1 [2,4-Diaminophenol dihydrochloride]",LEL,[1]; [27],5 mg/kg/day
same,NEL,[1]; [27],< 5 mg/kg/day
same,NOAEL,[1]; [27],19 mg/kg/day
same,LOAEL,[1]; systemic / pathology microscopic / kidney / regeneration,38 mg/kg/day
same,LOAEL,[2]; [28],25 mg/kg/day
same,NOAEL,[2]; [28],12.5 mg/kg/day
same,LEL,[2]; [29],12.5 mg/kg/day
same,NEL,[2]; [29],< 12.5 mg/kg/day
same,LEL,[3],19 mg/kg/day
same,LOAEL,[3],19 mg/kg/day
same,NEL,[3],< 19 mg/kg/day
same,NOAEL,[3],< 19 mg/kg/day
same,LOAEL,[4]; systemic / organ weight / kidney / relative to body weight + systemic / pathology microscopic / kidney / necrosis,25 mg/kg/day
same,NOAEL,[4]; systemic / organ weight / kidney / relative to body weight + systemic / pathology microscopic / kidney / necrosis + systemic / in life …,12 mg/kg/day
same,LEL,[4]; [30],12 mg/kg/day
same,NEL,[4]; [30],< 12 mg/kg/day
CN1CCN(Cc2cc(-c3ccc4[nH]c(=O)oc4c3)co2)[C@@H](c2ccc(F)cc2)C1.Cl.O [AVE8488],LOAEL,[5]; [31],7 mg/kg/day
same,NOAEL,[5]; [31],1 mg/kg/day
same,LEL,[5]; [32],1 mg/kg/day
same,NEL,[5]; [32],< 1 mg/kg/day
same,LEL,[6]; [33],150 mg/kg/day
same,LOAEL,[6]; [33],150 mg/kg/day
same,NEL,[6]; [33],50 mg/kg/day
same,NOAEL,[6]; [33],50 mg/kg/day
same,LEL,[6]; [34],150 mg/kg/day
same,LOAEL,[6]; [34],150 mg/kg/day
same,NEL,[6]; [34],50 mg/kg/day
same,NOAEL,[6]; [34],50 mg/kg/day
same,LOAEL,[7]; [35],> 150 mg/kg/day
same,NOAEL,[7]; [35],≥ 150 mg/kg/day
same,LEL,[7]; [36],1 mg/kg/day
same,NEL,[7]; [36],< 1 mg/kg/day
same,LOAEL,[8]; [37],> 2000 mg/kg/day
same,NOAEL,[8]; [37],≥ 2000 mg/kg/day
same,LEL,[8]; [38],50 mg/kg/day
same,NEL,[8]; [38],< 50 mg/kg/day
same,LEL,[9]; [39],100 mg/kg/day
same,LOAEL,[9]; [39],100 mg/kg/day
same,NEL,[9]; [39],50 mg/kg/day
same,NOAEL,[9]; [39],50 mg/kg/day
same,LEL,[9]; [40],100 mg/kg/day
same,LOAEL,[9]; [40],100 mg/kg/day
same,NEL,[9]; [40],50 mg/kg/day
same,NOAEL,[9]; [40],50 mg/kg/day
same,LEL,[10],3.7 mg/kg/day
same,LOAEL,[10],25 mg/kg/day
same,NEL,[10],0.79 mg/kg/day
same,NOAEL,[10],3.7 mg/kg/day
same,LEL,[11],10 mg/kg/day
same,LOAEL,[11],10 mg/kg/day
same,NEL,[11],1 mg/kg/day
same,NOAEL,[11],1 mg/kg/day
same,LEL,[12],20 mg/kg/day
same,LOAEL,[12],20 mg/kg/day
same,NEL,[12],5 mg/kg/day
same,NOAEL,[12],5 mg/kg/day
same,NOAEL,[13]; systemic / in life observation / clinical signs / emesis + systemic / clinical chemistry / albumin / albumin + systemic / clinical chemistry…,5 mg/kg/day
same,LEL,[13]; [41],1 mg/kg/day
same,NEL,[13]; [41],< 1 mg/kg/day
same,LOAEL,[13]; systemic / in life observation / clinical signs / emesis + systemic / in life observation / clinical signs / salivation + systemic / …,20 mg/kg/day
same,LEL,[14]; systemic / clinical chemistry / triglycerides / triglycerides + systemic / in life observation / body weight / body weight gain,5 mg/kg/day
same,NEL,[14]; [31],0.25 mg/kg/day
same,LOAEL,[14]; [42],50 mg/kg/day
same,NOAEL,[14]; [42],5 mg/kg/day
"Cl.Cl.Nc1ccc(Cc2ccc(N)cc2)cc1 [4,4'-Methylenedianiline dihydrochloride]",LOAEL,[15]; [43],19 mg/kg/day
same,NOAEL,[15]; [43],< 19 mg/kg/day
same,LEL,[15]; [44],19 mg/kg/day
same,NEL,[15]; [44],< 19 mg/kg/day
same,LOAEL,[16]; [45],40 mg/kg/day
same,NOAEL,[16]; [45],20 mg/kg/day
same,LEL,[16]; [46],10 mg/kg/day
same,NEL,[16]; [46],< 10 mg/kg/day
same,LOAEL,[17]; systemic / in life observation / body weight / body weight gain + systemic / in life observation / water consumption / water consumption,120 mg/kg/day
same,LEL,[17]; [47],120 mg/kg/day
same,NEL,[17]; [47],60 mg/kg/day
same,NOAEL,[17]; [47],60 mg/kg/day
same,LOAEL,[18]; [48],20 mg/kg/day
same,NEL,[18]; [48],5 mg/kg/day
same,NOAEL,[18]; [48],10 mg/kg/day
same,LEL,[18]; [46],10 mg/kg/day
same,LEL,[19],9 mg/kg/day
same,LOAEL,[19],9 mg/kg/day
same,NEL,[19],< 9 mg/kg/day
same,NOAEL,[19],< 9 mg/kg/day
same,LOAEL,[20]; [49],60 mg/kg/day
same,NOAEL,[20]; [49],30 mg/kg/day
same,LEL,[20]; [46],3.75 mg/kg/day
same,NEL,[20]; [46],< 3.75 mg/kg/day
"CC(C)[NH3+].O=C([O-])COc1ccc(Cl)cc1Cl [2,4-D, isopropylamine salt]",LEL,[21]; [50],100 mg/kg/day
same,LOAEL,[21]; [50],100 mg/kg/day
same,NEL,[21]; [50],32.5 mg/kg/day
same,NOAEL,[21]; [50],32.5 mg/kg/day
same,LEL,[21]; [51],32.5 mg/kg/day
same,LOAEL,[21]; [51],32.5 mg/kg/day
same,NEL,[21]; [51],< 32.5 mg/kg/day
same,NOAEL,[21]; [51],< 32.5 mg/kg/day
same,LEL,[22]; [52],190 mg/kg/day
same,LOAEL,[22]; [52],190 mg/kg/day
same,NEL,[22]; [52],65 mg/kg/day
same,NOAEL,[22]; [52],65 mg/kg/day
same,LEL,[22]; [40],190 mg/kg/day
same,LOAEL,[22]; [40],190 mg/kg/day
same,NEL,[22]; [40],65 mg/kg/day
same,NOAEL,[22]; [40],65 mg/kg/day
same,LEL,[23],187 mg/kg/day
same,LOAEL,[23],187 mg/kg/day
same,NEL,[23],28 mg/kg/day
same,NOAEL,[23],28 mg/kg/day
same,LEL,[24],127 mg/kg/day
same,LOAEL,[24],127 mg/kg/day
same,NEL,[24],19 mg/kg/day
same,NOAEL,[24],19 mg/kg/day
CC(O)CSS(C)(=O)=O (stereo not given) [2-Hydroxypropyl methanethiosulfonate],LEL,[25],100 mg/kg/day
same,LOAEL,[25],100 mg/kg/day
same,NEL,[25],< 100 mg/kg/day
same,NOAEL,[25],< 100 mg/kg/day
same,LEL,[26],10 mg/kg/day
same,LOAEL,[26],10 mg/kg/day
same,NEL,[26],< 10 mg/kg/day
same,NOAEL,[26],< 10 mg/kg/day
